{"source": "patent US5190741A", "about": "“Agents for diagnosing and treating melanomas, aromatic halogenated derivatives usable as such agents and their preparation” (Institut National de la Sante et de la Recherche Medicale …, priority 1989, dated 1993)", "key": {"[1]": {"tested_on": "Beu melanic human melanoma", "assay": "Scintillation imaging, nu/nu SSCUP nude mice bearing Beu", "format": "in vivo", "settings": "3 to 17 h after injection", "excerpt": "The mice bearing grafted tumors are anesthetized by the i.p. injection of sodium pentobarbital 1/5 and immobilized under a scintillation camera (Gammatome II, CGR) equipped with a pinhole 3-360 collimator, sensitivity 3.2 10^-4.\nnu/nu SSCUP nudes bearing human melanomas Beu and Dau.\nThe scanning observations have also been carried out after the injection of B into the following mice:\nnu/nu SSCUP nudes bearing the Beu heterotransplant."}, "[2]": {"tested_on": "B16 murine melanoma", "assay": "Tissue distribution in C57 BL6 mice bearing B16", "format": "in vivo, mouse", "experimental": "(§1) The study of the tissue distribution of the ^125 I labelled compounds was performed in mice bearing grafted melanomas (cf. autoradiograms above). […] The animals are sacrificed at different time intervals of 1 to 24 hours after the injection. The blood is collected and the principal organs are excised. Aliquots are weighed and the radioactivity of the samples is measured in a […] 1191 counter (analytic tracer). The counting yield for iodine 125 is 60%. The results are expressed: as a percentage of the injected dose bound per g of tissue (% ID/g); in the form of the ratios [formula] This ratio reflects more precisely the selectivity of a molecule for an organ (tables 2, 4, 6, 8, 10 and 12)."}, "[3]": {"assay": "Tissue distribution in C57 BL6 mice bearing B16", "format": "in vivo, mouse", "settings": "mouse, iv, 3 umol/animal", "experimental": "as §1"}, "[4]": {"tested_on": "B16 murine melanoma", "assay": "Autoradiograms, C57 BL6 mice bearing B16", "format": "in vivo, mouse", "experimental": "The autoradiograms are carried out in mice bearing grafted melanomas:\na. C57 BL6 bearing the B16 murine melanoma.\nThe animals bearing grafted tumors receive the labelled compounds in the form of the hydrochloride in saline solution (3.7 to 5×10^5 Bq/animal) in a caudal vein. At different time intervals after the administration of the compounds (from 15 minutes to 24 hours) the mice are anesthetized with ether and plunged into liquid nitrogen.\n30 μm sections, parallel to a sagittal plane, are prepared in a freezing microtome (TS 260, SLEE) according to the protocol described by Ullberg."}, "[5]": {"settings": "kidney, read-out: kidney % ID/g"}, "[6]": {"settings": "muscle, read-out: muscle % ID/g"}, "[7]": {"settings": "plasma, read-out: plasma % ID/g"}}, "note": "Like-named read-outs stand apart in the source and are kept apart here."}
{"smiles": "CCNCCNC(=O)c1ccc(I)cc1", "note": "[Derivative B, N-(2-ethylaminoethyl) 4-iodo benzamide]", "values": [{"measurement": "tumoral definition", "setting": "[1]", "value": "very good tumoral definition"}, {"measurement": "intratumoral concentrations and ratios compared with A", "setting": "[2]; 4 to 8 h, melanic melanomas, preliminary", "value": "markedly higher than those observed with A"}, {"measurement": "brain/blood ratio", "setting": "[2]; 1 h", "value": "2,48"}, {"measurement": "eye/blood ratio", "setting": "[2]; 1 h", "value": "9,70"}, {"measurement": "kidney/blood ratio", "setting": "[2]; 1 h", "value": "10,92"}, {"measurement": "liver/blood ratio", "setting": "[2]; 1 h", "value": "5,32"}, {"measurement": "lungs/blood ratio", "setting": "[2]; 1 h", "value": "11,00"}, {"measurement": "muscle/blood ratio", "setting": "[2]; 1 h", "value": "1,95"}, {"measurement": "plasma/blood ratio", "setting": "[2]; 1 h", "value": "0,56"}, {"measurement": "tumor/blood ratio", "setting": "[2]; 1 h", "value": "4,70"}, {"measurement": "brain/blood ratio", "setting": "[2]; 2 h", "value": "3,11"}, {"measurement": "eye/blood ratio", "setting": "[2]; 2 h", "value": "17,50"}, {"measurement": "kidney/blood ratio", "setting": "[2]; 2 h", "value": "12,82"}, {"measurement": "liver/blood ratio", "setting": "[2]; 2 h", "value": "5,55"}, {"measurement": "lungs/blood ratio", "setting": "[2]; 2 h", "value": "11,94"}, {"measurement": "muscle/blood ratio", "setting": "[2]; 2 h", "value": "1,96"}, {"measurement": "plasma/blood ratio", "setting": "[2]; 2 h", "value": "0,60"}, {"measurement": "tumor/blood ratio", "setting": "[2]; 2 h", "value": "8,51"}, {"measurement": "brain/blood ratio", "setting": "[2]; 4 h", "value": "4,33"}, {"measurement": "eye/blood ratio", "setting": "[2]; 4 h", "value": "39,70"}, {"measurement": "kidney/blood ratio", "setting": "[2]; 4 h", "value": "16,38"}, {"measurement": "liver/blood ratio", "setting": "[2]; 4 h", "value": "7,58"}, {"measurement": "lungs/blood ratio", "setting": "[2]; 4 h", "value": "16,64"}, {"measurement": "muscle/blood ratio", "setting": "[2]; 4 h", "value": "2,49"}, {"measurement": "plasma/blood ratio", "setting": "[2]; 4 h", "value": "0,79"}, {"measurement": "tumor/blood ratio", "setting": "[2]; 4 h", "value": "16,17"}, {"measurement": "brain/blood ratio", "setting": "[2]; 6 h", "value": "3,51"}, {"measurement": "eye/blood ratio", "setting": "[2]; 6 h", "value": 73}, {"measurement": "kidney/blood ratio", "setting": "[2]; 6 h", "value": "13,04"}, {"measurement": "liver/blood ratio", "setting": "[2]; 6 h", "value": "6,80"}, {"measurement": "lungs/blood ratio", "setting": "[2]; 6 h", "value": "14,66"}, {"measurement": "muscle/blood ratio", "setting": "[2]; 6 h", "value": "1,47"}, {"measurement": "plasma/blood ratio", "setting": "[2]; 6 h", "value": "0,90"}, {"measurement": "tumor/blood ratio", "setting": "[2]; 6 h", "value": 36}, {"measurement": "contrast index of melanic tumors vs neighbouring muscles or organs, compared with A", "setting": "[2]; 6 hours", "value": "the majority of these indices are higher for B than for A"}, {"measurement": "brain/blood ratio", "setting": "[2]; 24 h", "value": "0,46"}, {"measurement": "eye/blood ratio", "setting": "[2]; 24 h", "value": 200}, {"measurement": "kidney/blood ratio", "setting": "[2]; 24 h", "value": "5,24"}, {"measurement": "liver/blood ratio", "setting": "[2]; 24 h", "value": "7,49"}, {"measurement": "lungs/blood ratio", "setting": "[2]; 24 h", "value": "1,74"}, {"measurement": "muscle/blood ratio", "setting": "[2]; 24 h", "value": "0,75"}, {"measurement": "plasma/blood ratio", "setting": "[2]; 24 h", "value": "0,77"}, {"measurement": "tumor/blood ratio", "setting": "[2]; 24 h", "value": 16}, {"measurement": "concentrations and tumor/blood ratios compared with A", "setting": "[2]; 24 hours, melanic melanomas, preliminary", "value": "lower than those of A"}, {"measurement": "marker of the B16 murine melanoma", "setting": "[2]; mouse, in vivo", "value": "markers of the B16 murine melanoma"}, {"measurement": "tissue uptake at 1 h", "setting": "[3]; blood, read-out: blood % ID/g", "value": 1.31, "unit": "%ID/g"}, {"measurement": "tissue uptake at 2 h", "setting": "[3]; blood, read-out: blood % ID/g", "value": 0.67, "unit": "%ID/g"}, {"measurement": "tissue uptake at 4 h", "setting": "[3]; blood, read-out: blood % ID/g", "value": 0.27, "unit": "%ID/g"}, {"measurement": "tissue uptake at 6 h", "setting": "[3]; blood, read-out: blood % ID/g", "value": 0.14, "unit": "%ID/g"}, {"measurement": "tissue uptake at 24 h", "setting": "[3]; blood, read-out: blood % ID/g", "value": 0.03, "unit": "%ID/g"}, {"measurement": "tissue uptake at 1 h", "setting": "[3]; brain, read-out: brain % ID/g", "value": 3.26, "unit": "%ID/g"}, {"measurement": "tissue uptake at 2 h", "setting": "[3]; brain, read-out: brain % ID/g", "value": 2.09, "unit": "%ID/g"}, {"measurement": "tissue uptake at 4 h", "setting": "[3]; brain, read-out: brain % ID/g", "value": 1.17, "unit": "%ID/g"}, {"measurement": "tissue uptake at 6 h", "setting": "[3]; brain, read-out: brain % ID/g", "value": 0.5, "unit": "%ID/g"}, {"measurement": "tissue uptake at 24 h", "setting": "[3]; brain, read-out: brain % ID/g", "value": 0.01, "unit": "%ID/g"}, {"measurement": "tissue uptake at 1 h", "setting": "[3]; eye, read-out: eye % ID/g", "value": 0.45, "unit": "%ID/g"}, {"measurement": "tissue uptake at 2 h", "setting": "[3]; eye, read-out: eye % ID/g", "value": 0.43, "unit": "%ID/g"}, {"measurement": "tissue uptake at 4 h", "setting": "[3]; eye, read-out: eye % ID/g", "value": 0.42, "unit": "%ID/g"}, {"measurement": "tissue uptake at 6 h", "setting": "[3]; eye, read-out: eye % ID/g", "value": 0.38, "unit": "%ID/g"}, {"measurement": "tissue uptake at 24 h", "setting": "[3]; eye, read-out: eye % ID/g", "value": 0.24, "unit": "%ID/g"}, {"measurement": "tissue uptake at 1 h", "setting": "[3]; [5]", "value": 14.4, "unit": "%ID/g"}, {"measurement": "tissue uptake at 2 h", "setting": "[3]; [5]", "value": 8.64, "unit": "%ID/g"}, {"measurement": "tissue uptake at 4 h", "setting": "[3]; [5]", "value": 4.42, "unit": "%ID/g"}, {"measurement": "tissue uptake at 6 h", "setting": "[3]; [5]", "value": 1.86, "unit": "%ID/g"}, {"measurement": "tissue uptake at 24 h", "setting": "[3]; [5]", "value": 0.16, "unit": "%ID/g"}, {"measurement": "tissue uptake at 1 h", "setting": "[3]; liver, read-out: liver % ID/g", "value": 6.96, "unit": "%ID/g"}, {"measurement": "tissue uptake at 2 h", "setting": "[3]; liver, read-out: liver % ID/g", "value": 3.72, "unit": "%ID/g"}, {"measurement": "tissue uptake at 4 h", "setting": "[3]; liver, read-out: liver % ID/g", "value": 2.05, "unit": "%ID/g"}, {"measurement": "tissue uptake at 6 h", "setting": "[3]; liver, read-out: liver % ID/g", "value": 0.96, "unit": "%ID/g"}, {"measurement": "tissue uptake at 24 h", "setting": "[3]; liver, read-out: liver % ID/g", "value": 0.22, "unit": "%ID/g"}, {"measurement": "tissue uptake at 1 h", "setting": "[3]; lung, read-out: lungs % ID/g", "value": 14.4, "unit": "%ID/g"}, {"measurement": "tissue uptake at 2 h", "setting": "[3]; lung, read-out: lungs % ID/g", "value": 8, "unit": "%ID/g"}, {"measurement": "tissue uptake at 4 h", "setting": "[3]; lung, read-out: lungs % ID/g", "value": 4.49, "unit": "%ID/g"}, {"measurement": "tissue uptake at 6 h", "setting": "[3]; lung, read-out: lungs % ID/g", "value": 2.1, "unit": "%ID/g"}, {"measurement": "tissue uptake at 24 h", "setting": "[3]; lung, read-out: lungs % ID/g", "value": 0.05, "unit": "%ID/g"}, {"measurement": "tissue uptake at 1 h", "setting": "[3]; [6]", "value": 2.55, "unit": "%ID/g"}, {"measurement": "tissue uptake at 2 h", "setting": "[3]; [6]", "value": 1.33, "unit": "%ID/g"}, {"measurement": "tissue uptake at 4 h", "setting": "[3]; [6]", "value": 0.67, "unit": "%ID/g"}, {"measurement": "tissue uptake at 6 h", "setting": "[3]; [6]", "value": 0.2, "unit": "%ID/g"}, {"measurement": "tissue uptake at 24 h", "setting": "[3]; [6]", "value": 0.02, "unit": "%ID/g"}, {"measurement": "tissue uptake at 1 h", "setting": "[3]; [7]", "value": 0.73, "unit": "%ID/g"}, {"measurement": "tissue uptake at 2 h", "setting": "[3]; [7]", "value": 0.4, "unit": "%ID/g"}, {"measurement": "tissue uptake at 4 h", "setting": "[3]; [7]", "value": 0.21, "unit": "%ID/g"}, {"measurement": "tissue uptake at 6 h", "setting": "[3]; [7]", "value": 0.13, "unit": "%ID/g"}, {"measurement": "tissue uptake at 24 h", "setting": "[3]; [7]", "value": 0.02, "unit": "%ID/g"}, {"measurement": "tissue uptake at 1 h", "setting": "[3]; tumor, read-out: tumor % ID/g", "value": 6.03, "unit": "%ID/g"}, {"measurement": "tissue uptake at 2 h", "setting": "[3]; tumor, read-out: tumor % ID/g", "value": 5.73, "unit": "%ID/g"}, {"measurement": "tissue uptake at 4 h", "setting": "[3]; tumor, read-out: tumor % ID/g", "value": 4.36, "unit": "%ID/g"}, {"measurement": "tissue uptake at 6 h", "setting": "[3]; tumor, read-out: tumor % ID/g", "value": 4.69, "unit": "%ID/g"}, {"measurement": "tissue uptake at 24 h", "setting": "[3]; tumor, read-out: tumor % ID/g", "value": 0.49, "unit": "%ID/g"}, {"measurement": "darkening of the film at the tumor", "setting": "[4]; 1 h after injection", "value": "qualitatively as great as after the injection of A"}, {"measurement": "tumoral radioactive concentration (autoradiogram)", "setting": "[4]; 4 h and particularly 6 h, compared with A", "value": "more intense tumoral radioactive concentration"}, {"measurement": "tumor visibility on autoradiogram", "setting": "[4]; 24 h after i.v.", "value": "still visible"}, {"measurement": "radioactivity remaining in the organism", "setting": "[4]; 24 h after injection", "value": "no radioactivity remains in the organism"}]}
